Measured values published in ChEMBL document CHEMBL5042556, “Lead Optimization to Advance Protease-Activated Receptor-1 Antagonists in Early Discovery” (J Med Chem, 2022).

Assays:
[1] = molecular target: T1, Proteinase-activated receptor 1 (Homo sapiens, UniProt P25116); assay: Antagonist activity at human PAR-1 expressed in HEK293 cells assessed as reduction in TRAP induced calcium signal at 3 uM by FLIPR analysis; format: functional, cell-based
T1 sequence (P25116 whole entry): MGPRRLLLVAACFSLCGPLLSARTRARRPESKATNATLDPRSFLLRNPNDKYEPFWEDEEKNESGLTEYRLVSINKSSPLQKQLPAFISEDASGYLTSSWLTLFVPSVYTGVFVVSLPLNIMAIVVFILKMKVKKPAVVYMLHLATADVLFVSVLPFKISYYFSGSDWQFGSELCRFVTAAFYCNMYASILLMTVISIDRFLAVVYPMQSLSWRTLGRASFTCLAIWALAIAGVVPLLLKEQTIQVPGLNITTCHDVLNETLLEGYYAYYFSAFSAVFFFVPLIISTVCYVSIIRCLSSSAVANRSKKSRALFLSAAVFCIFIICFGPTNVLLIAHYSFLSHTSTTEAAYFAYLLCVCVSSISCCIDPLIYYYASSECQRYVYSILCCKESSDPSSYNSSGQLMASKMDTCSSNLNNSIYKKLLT

[2] = molecular target: Voltage-gated inwardly rectifying potassium channel KCNH2 (Homo sapiens, UniProt Q12809); assay: Inhibition of [35S]MK-499 binding to hERG expressed in HEK293 cells; format: toxicity, cell-based
Chain of Voltage-gated inwardly rectifying potassium channel KCNH2 (Q12809 whole entry): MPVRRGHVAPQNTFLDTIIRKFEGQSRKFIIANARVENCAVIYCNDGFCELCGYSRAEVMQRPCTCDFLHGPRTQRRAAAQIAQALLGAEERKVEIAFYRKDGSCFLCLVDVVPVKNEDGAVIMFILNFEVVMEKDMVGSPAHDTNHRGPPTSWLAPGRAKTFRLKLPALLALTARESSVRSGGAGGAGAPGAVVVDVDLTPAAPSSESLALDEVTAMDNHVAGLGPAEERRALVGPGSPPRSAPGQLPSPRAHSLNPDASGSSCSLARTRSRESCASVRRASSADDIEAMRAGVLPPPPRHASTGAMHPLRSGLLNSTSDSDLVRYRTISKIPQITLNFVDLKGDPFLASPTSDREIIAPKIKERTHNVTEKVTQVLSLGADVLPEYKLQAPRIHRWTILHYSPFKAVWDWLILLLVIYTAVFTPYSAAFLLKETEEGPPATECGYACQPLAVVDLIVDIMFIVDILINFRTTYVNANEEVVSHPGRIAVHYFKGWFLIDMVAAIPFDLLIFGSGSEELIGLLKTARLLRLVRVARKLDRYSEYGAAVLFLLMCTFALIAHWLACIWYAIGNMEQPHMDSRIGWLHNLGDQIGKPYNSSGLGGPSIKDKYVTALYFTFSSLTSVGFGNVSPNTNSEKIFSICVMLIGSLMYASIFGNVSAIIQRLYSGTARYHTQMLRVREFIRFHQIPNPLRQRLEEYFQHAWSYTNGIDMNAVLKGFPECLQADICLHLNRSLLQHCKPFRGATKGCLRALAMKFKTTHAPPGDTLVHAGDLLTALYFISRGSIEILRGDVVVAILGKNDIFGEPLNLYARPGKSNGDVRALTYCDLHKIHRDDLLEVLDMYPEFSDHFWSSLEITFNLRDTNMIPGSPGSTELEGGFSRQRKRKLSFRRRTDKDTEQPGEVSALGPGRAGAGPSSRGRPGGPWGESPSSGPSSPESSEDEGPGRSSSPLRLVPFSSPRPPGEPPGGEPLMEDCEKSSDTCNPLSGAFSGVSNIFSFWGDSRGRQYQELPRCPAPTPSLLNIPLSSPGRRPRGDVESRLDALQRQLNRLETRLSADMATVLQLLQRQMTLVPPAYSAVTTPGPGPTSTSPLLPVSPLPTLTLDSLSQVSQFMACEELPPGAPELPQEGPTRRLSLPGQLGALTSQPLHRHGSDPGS

[3] = MRT in rat at 1 mg/kg, iv; format: ADME, organism-based; conditions: in vivo
[4] = MRT in cynomolgus monkey at 0.3 mg/kg, po; format: ADME, organism-based, Macaca fascicularis; conditions: in vivo
[5] = Volume of distribution in dog at 0.3 mg/kg, iv; format: ADME, organism-based, Canis lupus familiaris; conditions: in vivo
[6] = Dose normalized Cmax in Sprague-Dawley rat at 30 mg/kg, po; format: ADME, organism-based; conditions: in vivo
[7] = Dose normalized Cmax in Sprague-Dawley rat at 10 mg/kg, po; format: ADME, organism-based; conditions: in vivo
[8] = MRT in cynomolgus monkey at 1 mg/kg, iv; format: ADME, organism-based, Macaca fascicularis; conditions: in vivo
[9] = Apparent permeability in MDCKII-LE cells; format: ADME, cell-based, Canis lupus familiaris; conditions: dog, MDCK
[10] = Ex vivo inhibition of PAR-1 in cynomolgus monkey whole blood assessed as inhibition of TRAP-induced platelet aggregation at 1 mg/kg, po measured after 24 hrs; format: functional; conditions: Macaca fascicularis
[11] = Ex vivo inhibition of PAR-1 in cynomolgus monkey whole blood assessed as inhibition of TRAP-induced platelet aggregation at 0.3 mg/kg, po measured after 24 hrs; format: functional; conditions: Macaca fascicularis
[12] = Plasma protein binding in dog assessed as unbound fraction; format: ADME, cell-free, Canis lupus familiaris
[13] = Clearance in rat hepatocyte measured per 10^6 cells; format: ADME, cell-based; conditions: hepatocytes
[14] = Clearance in dog hepatocyte measured per 10^6 cells; format: ADME, cell-based, Canis lupus familiaris; conditions: hepatocytes
[15] = Clearance in mouse hepatocyte measured per 10^6 cells; format: ADME, cell-based; conditions: hepatocytes
[16] = Clearance in human hepatocyte measured per 10^6 cells; format: ADME, cell-based; conditions: hepatocytes
[17] = Clearance in rat at 3 mg/kg, iv; format: ADME, organism-based; conditions: in vivo
[18] = Clearance in dog at 0.3 mg/kg, iv; format: ADME, organism-based, Canis lupus familiaris; conditions: in vivo
[19] = Clearance in cynomolgus monkey at 0.3 mg/kg, iv; format: ADME, organism-based, Macaca fascicularis; conditions: in vivo
[20] = Unbound clearance in rat at 3 mg/kg, iv; format: ADME, organism-based; conditions: in vivo
[21] = Unbound clearance in cynomolgus monkey at 0.3 mg/kg, iv; format: ADME, organism-based, Macaca fascicularis; conditions: in vivo
[22] = Volume of distribution in rat at 0.3 mg/kg, iv; format: ADME, organism-based; conditions: in vivo
[23] = Volume of distribution in cynomolgus monkey at 0.3 mg/kg, iv; format: ADME, organism-based, Macaca fascicularis; conditions: in vivo
[24] = Unbound volume of distribution in rat at 3 mg/kg, iv; format: ADME, organism-based; conditions: in vivo
[25] = Unbound volume of distribution in dog at 0.3 mg/kg, iv; format: ADME, organism-based, Canis lupus familiaris; conditions: in vivo
[26] = Unbound volume of distribution in cynomolgus monkey at 0.3 mg/kg, iv; format: ADME, organism-based, Macaca fascicularis; conditions: in vivo
[27] = Plasma protein binding in rat assessed as unbound fraction; format: ADME, cell-free
[28] = Plasma protein binding in cynomolgus monkey assessed as unbound fraction; format: ADME, cell-free, Macaca fascicularis
[29] = MRT in rat at 3 mg/kg, iv; format: ADME, organism-based; conditions: in vivo
[30] = MRT in dog at 0.3 mg/kg, iv; format: ADME, organism-based, Canis lupus familiaris; conditions: in vivo
[31] = Oral bioavailability in rat at 10 mg/kg; format: ADME, organism-based; conditions: in vivo
[32] = Oral bioavailability in dog at 1 mg/kg; format: ADME, organism-based, Canis lupus familiaris; conditions: in vivo
[33] = Oral bioavailability in cynomolgus monkey at 1 mg/kg,; format: ADME, organism-based, Macaca fascicularis; conditions: in vivo
[34] = Cmax in Sprague-Dawley rat at 3 mg/kg, po; format: ADME, organism-based; parameters: route oral, dose 3 mg/kg; conditions: in vivo
[35] = Cmax in Sprague-Dawley rat at 10 mg/kg, po; format: ADME, organism-based; parameters: route oral, dose 10 mg/kg; conditions: in vivo
[36] = Cmax in Sprague-Dawley rat at 30 mg/kg, po; format: ADME, organism-based; parameters: route oral, dose 30 mg/kg; conditions: in vivo
[37] = Cmax in Sprague-Dawley rat at 50 mg/kg, po; format: ADME, organism-based; parameters: route oral, dose 50 mg/kg; conditions: in vivo
[38] = AUC in Sprague-Dawley rat at 3 mg/kg, po; format: ADME, organism-based; parameters: dose 3 mg/kg; conditions: in vivo
[39] = AUC in Sprague-Dawley rat at 10 mg/kg, po; format: ADME, organism-based; parameters: dose 10 mg/kg; conditions: in vivo
[40] = AUC in Sprague-Dawley rat at 30 mg/kg, po; format: ADME, organism-based; parameters: dose 30 mg/kg; conditions: in vivo
[41] = AUC in Sprague-Dawley rat at 50 mg/kg, po; format: ADME, organism-based; parameters: dose 50 mg/kg; conditions: in vivo
[42] = Dose normalized Cmax in Sprague-Dawley rat at 3 mg/kg, po; format: ADME, organism-based; conditions: in vivo
[43] = Dose normalized Cmax in Sprague-Dawley rat at 50 mg/kg, po; format: ADME, organism-based; conditions: in vivo
[44] = Dose normalized AUC in Sprague-Dawley rat at 3 mg/kg, po; format: ADME, organism-based; conditions: in vivo
[45] = Dose normalized AUC in Sprague-Dawley rat at 10 mg/kg, po; format: ADME, organism-based; conditions: in vivo
[46] = Dose normalized AUC in Sprague-Dawley rat at 30 mg/kg, po; format: ADME, organism-based; conditions: in vivo
[47] = Dose normalized AUC in Sprague-Dawley rat at 50 mg/kg, po; format: ADME, organism-based; conditions: in vivo
[48] = Toxicity in rat assessed as non-toxic AUC for tissue toxicity at 30 mg/kg; format: organism-based; conditions: in vivo
[49] = Toxicity in rat assessed as non-toxic AUC for liver bioactivation at 30 mg/kg; format: organism-based; conditions: in vivo

Structure (SMILES): CC[C@H]1[C@H](/C=C/c2ccc(-c3ccccc3C#N)cn2)[C@@H]2[C@@H](C)OC(=O)[C@]2(O)CC1(F)F
- IC50 [1]: 8 nM
- IC50 [2]: 17000 nM
- MRT [3]: 5.5 h
- MRT [4]: > 20 h

Structure (SMILES): C[C@H]1OC(=O)[C@]2(N)CC(F)(F)[C@@H](C)[C@H](/C=C/c3ccc(-c4ccccc4C#N)cn3)[C@H]12
- Vd [5]: 6.3 L/kg
- Cmax/dose [6]: 0.4 µM
- Cmax/dose [7]: 0.56 µM
- IC50 [1]: 7 nM
- MRT [3]: 1.4 h
- MRT [8]: 24 h
- Papp [9]: 38.3 ×10⁻⁶ cm/s
- inhibition in vivo at 1 mg/kg [10]: 100%
- inhibition in vivo at 0.3 mg/kg [11]: 100%
- fraction unbound [12]: 0.15
- CLint [13]: 13 µL/min/1e6 cells
- CLint [14]: 2 µL/min/1e6 cells
- CLint [15]: 3.3 µL/min/1e6 cells
- CLint [16]: 1.1 µL/min/1e6 cells
- clearance [17]: 31 mL/min/kg
- clearance [18]: 5.9 mL/min/kg
- clearance [19]: 12 mL/min/kg
- CL free [20]: 352 mL/min/kg
- CL free [21]: 12 mL/min/kg
- Vd [22]: 3.6 L/kg
- Vd [23]: 2.5 L/kg
- Vdu [24]: 41 L/kg
- Vdu [25]: 41 L/kg
- Vdu [26]: 17 L/kg
- fraction unbound [27]: 0.09
- fraction unbound [28]: 0.15
- MRT [29]: 1.9 h
- MRT [30]: 18 h
- bioavailability [31]: 54%
- bioavailability [32]: 100%
- bioavailability [33]: 37%
- Cmax [34]: 0.36 µM
- Cmax [35]: 5.6 µM
- Cmax [36]: 12 µM
- Cmax [37]: 28 µM
- AUC [38]: 1.31 µM·h
- AUC [39]: 12.1 µM·h
- AUC [40]: 97 µM·h
- AUC [41]: 191 µM·h
- Cmax/dose [42]: 0.12 µM
- Cmax/dose [43]: 0.56 µM
- AUCt/dose [44]: 0.44 µM·h
- AUCt/dose [45]: 1.2 µM·h
- AUCt/dose [46]: 3.2 µM·h
- AUCt/dose [47]: 3.8 µM·h
- AUC [48]: 44 µM·h
- AUC [49]: 44 µM·h

Structure (SMILES): C[C@@H]1[C@@H](C)[C@@H]2CN(C)C[C@@]23C(=O)O[C@H](C)[C@H]3[C@H]1/C=C/c1ccc(-c2ccccc2C#N)cn1
- IC50 [1]: 28 nM
- IC50 [2]: 14800 nM

Structure (SMILES): C[C@H]1OC(=O)[C@]2(O)CC(F)(F)[C@@H](C)[C@H](/C=C/c3ccc(-c4ccccc4C#N)cn3)[C@H]12
- MRT [3]: 20 h
- MRT [4]: > 20 h
